# Results as given in publication PMC9518248, “Inhibition of Toxoplasma gondii by 1,2,4-triazole-based compounds: marked improvement in selectivity relative to the standard therapy pyrimethamine and sulfadiazine” (Journal of Enzyme Inhibition and Medicinal Chemistry, 2022).
# Experiments:
# [1] = tested on: human glioblastoma T98G cells; assay: Cytotoxicity against glioblastoma cells (MTT); assay type: cell-based; conditions: 24 h
# Procedure: (§1) Cytotoxic effect of 20b was evaluated using glioblastoma (T98G) cells obtained from the American Type Culture Collection (Manassas, VA). Cells were cultured in Dulbecco’s Modified Eagle’s Medium (DMEM-high glucose) (Sigma Aldrich, St. Louis, MO), supplemented with 10% heat inactivated FBS, penicillin (100 U/mL), and streptomycin (100 μg/mL) (Sigma Aldrich, St. Louis, MO). Cells were maintained in a humidified atmosphere of 5% CO2 and 95% air at 37 °C. Stock solutions of the investigated compounds (20b and temozolomide) were prepared by dissolving solid substances in a sterile DMSO. T98G glioblastoma cells were seeded into 96-well sterile plates at a density of 1 × 10^5cells/mL. After 24 h of incubation, the medium was removed from each well and then cells were incubated for the next 24 h with different concentrations of the investigated compounds (10, 25, 35, 50, and 100 µg/mL) in the medium containing 2% FBS. Viability of T98G cells was evaluated using MTT assay, whose principle is based on the conversion of 3–(4,5-dimethylthiazol-2-yl)-2,5-diphenyltetrazolium bromide (MTT) into dark-blue formazan crystals. In brief, after 24 h incubation of cells with varying concentrations of the tested compounds, culture medium was removed from the plate. Cells were washed with PBS, and then 100 µL of medium containing 10% MTT solution (5 mg/mL) was added to each well. After 3 h incubation, 100 µL (per well) of 10% SDS buffer solution was added to solubilise formazan crystals. After overnight incubation the absorbance was measured at 570 nm using a microplate reader (Epoch, BioTek Instruments, Winooski, VT). Experiments were repeated three times, and the measurements in each experiment were run in quadruplicate. Viability of the investigated cells was expressed as % of the viability of the untreated cells.
# [2] = Cytotoxicity against glioblastoma cells (MTT); assay type: cell-based, human; conditions: human, T98G glioblastoma cells, MTT, read-out: Viability of T98G cells (% of control ± SD)
# Procedure: as §1
# [3] = Haemolytic activity determination; assay type: cell-based; conditions: 0.1%, positive control, human RBCs, 37 °C, 30 min; read-out: Haemolysis (%)
# Procedure: Human red blood cells (RBCs) concentrate was obtained from the Regional Blood Donation and Transfusion Centre (Lublin, Poland). RBCs concentrate (5 mL) was washed three times with sterile PBS and centrifuged at 500 g for 3 min. […] The amount of free haemoglobin in supernatants was measured spectrophotometrically at 405 nm. Negative and positive controls were performed by incubating RBCs with sterile PBS and 0.1% Triton-X, respectively. Each experiment was run in triplicate.
Compound,reduction of T98G cell viability ([1]; 10 µg/mL) [%],reduction of T98G cell viability ([1]; 100 µg/mL) [%],"viability at 24 h, 10 µg/mL ([2]; 10 µg/mL) [%]","viability at 24 h, 25 µg/mL ([2]; 25 µg/mL) [%]","viability at 24 h, 35 µg/mL ([2]; 35 µg/mL) [%]","viability at 24 h, 50 µg/mL ([2]; 50 µg/mL) [%]","viability at 24 h, 100 µg/mL ([2]; 100 µg/mL) [%]","hemolysis at 30 min, 0.1 % [3] [%]"
"Cn1nnc2c(C(N)=O)ncn2c1=O [Temozolomide, reference compound]",~33,~46,66.6 ± 1.07,61.11 ± 0.45,57.3 ± 2.25,55.3 ± 1.81,53.95 ± 0.33,–
"CC(C)(C)CC(C)(C)c1ccc(OCCO)cc1 [Triton-X, reference compound]",–,–,–,–,–,–,–,99.78 ± 0.34
